Laboratory results published in US20230339977A1, “SUBSTITUTED HETEROARYL COMPOUND, AND COMPOSITION AND APPLICATION THEREOF” (SUNSHINE LAKE PHARMA CO., LTD., priority 2020, published 2023).
Where two headings read alike, the source gives them in different places.

Assays:
JAK1/TYK2 = assay: Cell level activity test of JAK1/TYK2 (IFN-α induced STAT3 phosphorylation in PBMC); type: cell-based; conditions: Homo sapiens; P-STAT3 by ELISA in PBMC, compound 1 h, IFN-α 5000 U/mL 15 min; read-out: IC50 nM (JAK 1 /TYK2)
Description: IFN-α can induce the phosphorylation of STAT3 downstream of JAK1/TYK2 in PBMC, and by measuring the level of STAT3 phosphorylation, the activity of the compound on JAK1/TYK2 at the cell level can be reflected.
Whole blood was collected from healthy subjects, anticoagulated with heparin sodium, and PBMC (human peripheral blood mononuclear cells) were extracted. PBMC were seeded in a 96-well culture plates at a density of 1*106/well. Positive wells and negative wells were added with the same volume of DMSO as the compound, and the final concentration of DMSO was 0.5%. The compounds were incubated with the cells at 37° C. for 1 h, and then stimulated by adding IFN-α at a final concentration of 5000 U/mL, an equal volume of medium was added to the negative wells, and incubated for 15 min. The cells were centrifuged to remove the supernatant, then lysed, and P-STAT3 was measured according to the instructions of the ELISA kit, the absorbance was read at 450 nm, and the IC50 value or inhibition rate was calculated.

[1] = Pharmacokinetic evaluation in rats after intravenous injection and oral administration; type: in vivo; conditions: rat, plasma; for AUC(0-t): read-out: PK AUClast; for Cmax: read-out: PK Cmax; for half-life: read-out: PK T½ (converted)
Description: The analytical LC/MS/MS system includes an Agilent 1200 series vacuum degasser, a binary syringe pump, an orifice plate autosampler, a column oven, and an Agilent G6430 triple quadrupole mass spectrometer with an electrospray ionization (ESI) source.
Agilent XDB-C18, 2.1 × 30 mm, 3.5 µM column was used to analysis, 5 µL sample was injected. Analytical conditions: Mobile phases were 0.1% formic acid in water (A) and 0.1% formic acid in methanol (B). The flow rate was 0.4 mL/min.
In addition, Agilent 6330 series LC/MS/MS spectrometer was used for analysis, equipped with G1312A binary syringe pump, G1367A automatic sampler and G1314C UV detector; LC/MS/MS spectrometer used ESI radiation source. Optimum analysis was achieved using standards with appropriate cation model processing and MRM conversion for each analyte. A Capcell MP-C18 column, 100 × 4.6 mm I.D., 5 µM (Phenomenex, Torrance, California, USA) was used during the analysis. Mobile phase was 5 mM ammonium acetate, 0.1% methanol in water (A): 5 mM ammonium acetate, 0.1% methanol in acetonitrile (B) (70/30, v/v); flow rate was 0.6 mL/min; column temperature was maintained at room temperature; 20 µL of sample was injected.
The present invention evaluates the pharmacokinetic studies of the compounds of the present invention in mice, rats, dogs or monkeys. The compounds of the present invention were administered in the form of aqueous solution or 2% HPMC + 1% Tween-80 aqueous solution, 5% DMSO + 5% saline solution, 4% MC or capsule. For intravenous administration, animals were dosed at about 0.5, 0.6, 1 or 2 mg/kg. The oral doses (p.o.) were 5 or 10 mg/kg for rats and mice, and 10 mg/kg for dogs and monkeys. Bloods (0.3 mL) were taken at time points 0.25, 0.5, 1.0, 2.0, 3.0, 4.0, 6.0, 8.0, 12 and 24 h and centrifuged at 3,000 or 4,000 rpm for 10 min. Plasma solutions were collected and stored at -20° C. or -70° C. until LC/MS/MS analysis as described above. […] Table 2 is the experimental results of the pharmacokinetic characteristics of the compounds provided in the examples of the present invention in rats.

| Compound | IC50 (JAK1/TYK2) | other results |
| --- | --- | --- |
| CC(=O)Nc1cc2c(-c3cc(C(F)F)c4c(n3)C3(CCOC3)OCC4)cn(C)c2cn1 (centres unmarked) [Example 7, N-(3-(4′-(Difluoromethyl)-4,5,5′,6′-Tetrahydro-2H-Spiro[Furan-3,8′-Pyrano[3,4-b]Pyridin]-2′-yl)-1-Methyl-1H-Pyrrolo[2,3-c]Pyridin-5-yl)Acetamide] | 14.1 nM | – |
| CC(=O)Nc1cc2c(-c3ccc4c(n3)C3(CCOC3)OC(=O)N4C)cn(C)c2cn1 (centres unmarked) [Example 10, N-(1-Methyl-3-(1′-Methyl-2′-Oxo-1′,2′,4,5-Tetrahydro-2H-Spiro[Furan-3,4′-Pyrido[3,2-d][1,3]Oxazin]-6′-yl)-1H-Pyrrolo[2,3-c]Pyridin-5-yl)Acetamide] | > 1000 nM | – |
| CC(=O)Nc1cc2c(-c3ccc4c(n3)C3(CCOC3)OC(C)(C)N4C)cn(C)c2cn1 (centres unmarked) [Example 13, N-(1-Methyl-3-(1′,2′,2′-Trimethyl-1′,2′,4,5-Tetrahydro-2H-Spiro[Furan-3,4′-P yrido[3,2-d][1,3]Oxazin]-6′-yl)-1H-Pyrrolo[2,3-c]Pyridin-5-yl)Acetamide] | 104 nM | – |
| CC(=O)Nc1cc2c(-c3cc(OCCN(C)C)c4c(n3)C3(CCOC3)OCC4)cn(C)c2cn1 (centres unmarked) [Example 19, N-(3-(4′-(2-(Dimethylamino)Ethoxy)-4,5,5′,6′-Tetrahydro-2H-Spiro[Furan-3,8′ -Pyrano[3,4-b]Pyridine]-2′-yl)-1-Methyl-1H-Pyrrolo[2,3-c]Pyridin-5-yl)Acetamide] | 115 nM | – |
| CCCCOc1cc(-c2cn(C)c3cnc(NC(C)=O)cc23)nc2c1CCOC21CCOC1 (centres unmarked) [Example 20, N-(3-(4′-Butoxy-4,5,5′,6′-Tetrahydro-2H-Spiro[Furan-3,8′-pyrAno[3,4-b]Pyridine]-2′-yl)-1-Methyl-1H-Pyrrolo[2,3-c]Pyridin-5-yl)Acetamide] | 64.9 nM | – |
| CC(=O)Nc1cc2c(-c3cc(Cl)c4c(n3)C3(CCOC3)OCC4)cn(C)c2cn1 (centres unmarked) [Example 21, N-(3-(4′-Chloro-4,5,5′,6′-Tetrahydro-2H-Spiro[Furan-3,8′-Pyrano[3,4-b]Pyridine]-2′-yl)-1-Methyl-1H-Pyrrolo[2,3-c]Pyridin-5-yl)Acetamide] | 36.9 nM | – |
| COCCCOc1cc(-c2cn(C)c3cnc(NC(C)=O)cc23)nc2c1CCOC21CCOC1 (centres unmarked) [Example 22, N-(3-(4′-(3-Methoxypropoxy)-4,5,5′,6′-Tetrahydro-2H-Spiro[Furan-3,8′-Pyrano[3,4-b]Pyridin]-2′-yl)-1-Methyl-1H-Pyrrolo[2,3-c]Pyridin-5-yl)Acetamide] | 7.23 nM | – |
| CC(=O)Nc1cc2c(-c3cc(S(C)(=O)=O)c4c(n3)C3(CCOC3)OCC4)cn(C)c2cn1 (centres unmarked) [Example 23, N-(1-meThyl-3-(4′-(Methylsulfonyl)-4,5,5′,6′-Tetrahydro-2H-Spiro[Furan-3,8′-Pyrano[3,4-b]Pyridin]-2′-yl)-1H-Pyrrolo[2,3-c]Pyridin-5-yl)Acetamide] | 104 nM | – |
| CC(=O)Nc1cc2c(-c3cc(N(C)C)c4c(n3)C3(CCOC3)OCC4)cn(C)c2cn1 (centres unmarked) [Example 24, N-(3-(4′-(Dimethylamino)-4,5,5′,6′-Tetrahydro-2H-Spiro[Furan-3,8′-Pyrano[3,4-b]Pyridin]-2′-yl)-1-Methyl-1H-Pyrrolo[2,3-c]Pyridin-5-yl)Acetamide] | 29.9 nM | – |
| CC(=O)Nc1cc2c(-c3cc(C#N)c4c(n3)C3(CCOC3)OCC4)cn(C)c2cn1 (centres unmarked) [Example 25, N-(3-(4′-Cyano-4,5,5′,6′-Tetrahydro-2H-Spiro[Furan-3,8′-Pyrano[3,4-b]Pyridine]-2′-yl)-1-Methyl-1H-Pyrrolo[2,3-c]Pyridin-5-yl)Acetamide] | 45.5 nM | – |
| CC(=O)Nc1cc2c(-c3cc(OCCC(C)(C)O)c4c(n3)C3(CCOC3)OCC4)cn(C)c2cn1 (centres unmarked) [Example 26, N-(3-(4′-(3-Hydroxy-3-Methylbutoxy)-4,5,5′,6′-Tetrahydro-2H-Spiro[Furan-3, 8′-Pyrano[3,4-b]Pyridin]-2′-yl)-1-Methyl-1H-Pyrrolo[2,3-c]Pyridin-5-yl)Acetamide] | 110 nM | AUC(0-t) ([1]; IV 2 mg/kg): 494 ng·h/mL; Cmax ([1]; IV 2 mg/kg): 289 ng/mL; half-life ([1]; IV 2 mg/kg): 1.65 h; AUC(0-t) ([1]; PO 5 mg/kg): 2290 ng·h/mL; Cmax ([1]; PO 5 mg/kg): 612 ng/mL; half-life ([1]; PO 5 mg/kg): 3.62 h; bioavailability ([1]; oral bioavailability, PO 5 mg/kg): 98.5% |
| COC(C)(C)CCOc1cc(-c2cn(C)c3cnc(NC(C)=O)cc23)nc2c1CCOC21CCOC1 (centres unmarked) [Example 27, N-(3-(4′-(3-Methoxy-3-Methylbutoxy)-4,5,5′,6′-Tetrahydro-2H-Spiro[Furan-3, 8′-Pyrano[3,4-b]Pyridin]-2′-yl)-1-Methyl-1H-Pyrrolo[2,3-c]Pyridin-5-yl)Acetamide] | 13.1 nM | – |
| COCCCCOc1cc(-c2cn(C)c3cnc(NC(C)=O)cc23)nc2c1CCOC21CCOC1 (centres unmarked) [Example 28, N-(3-(4′-(4-Methoxybutoxy)-4,5,5′,6′-Tetrahydro-2H-Spiro[Furan-3,8′-Pyrano[3,4-b]Pyridin]-2′-yl)-1-Methyl-1H-Pyrrolo[2,3-c]Pyridin-5-yl)Acetamide] | 12.9 nM | – |
| CC(=O)Nc1cc2c(-c3cc(OCCCN(C)C)c4c(n3)C3(CCOC3)OCC4)cn(C)c2cn1 (centres unmarked) [Example 29, N-(3-(4′-(3-(Dimethylamino)Propoxy)-4,5,5′,6′-Tetrahydro-2H-Spiro[Furan-3, 8′-Pyrano[3,4-b]Pyridin]-2′-yl)-1-Methyl-1H-Pyrrolo[2,3-c]Pyridin-5-yl)Acetamide] | 93.1 nM | – |

Second part, led by results:

| IC50 (JAK1/TYK2) | Compound | other results |
| --- | --- | --- |
| 52.7 nM | COC1(c2cccc(-c3cn(C)c4cnc(NC(C)=O)cc34)n2)CCOC1 (centres unmarked) [Control compound, reference compound] | – |
| 178 nM | COc1cc(-c2cn(C)c3cnc(NC(C)=O)cc23)nc2c1CCOC21CCOC1 (centres unmarked) [Example 5, N-(3-(4′-Methoxy-4,5,5′,6′-Tetrahydro-2H-Spiro[Furan-3,8′-Pyrano[3,4-b]Pyridin]-2′-yl)-1-Methyl-1H-Pyrrolo[2,3-c]Pyridin-5-yl)Acetamide] | – |
| 41.2 nM | COCc1cc(-c2cn(C)c3cnc(NC(C)=O)cc23)nc2c1CCOC21CCOC1 (centres unmarked) [Example 8, N-(3-(4′-(Methoxymethyl)-4,5,5′,6′-Tetrahydro-2H-Spiro[Furan-3,8′-Pyrano[3,4-b]Pyridin]-2′-yl)-1-Methyl-1H-Pyrrolo[2,3-c]Pyridin-5-yl)Acetamide] | – |
| 114 nM | CC(=O)Nc1cc2c(-c3ccc4c(n3)C3(CCOC3)OCN4C)cn(C)c2cn1 (centres unmarked) [Example 9, N-(1-Methyl-3-(1′-Methyl-1′,2′,4,5-Tetrahydro-2Hspiro[Furan-3,4′-Pyrido[3,2-d][1,3]Oxazin]-6′-yl)-1H-Pyrrolo[2,3-c]Pyridin-5-yl)Acetamide] | – |
| > 1000 nM | CC(=O)Nc1cc2c(-c3ccc4c(n3)C3(CCCOC3)OC4)cn(C)c2cn1 (centres unmarked) [Example 11, N-(3-(5′,6′-Dihydro-2′H,4′H,5H-Spiro[Furo[3,4-b]Pyridin-7,3′-Pyran]-2-yl)-1-Methyl-1H-Pyrrolo[2,3-c]Pyridin-5-yl)Acetamide] | – |
| 48.6 nM | COCCOc1cc(-c2cn(C)c3cnc(NC(C)=O)cc23)nc2c1CCOC21CCOC1 (centres unmarked) [Example 15, N-(3-(4′-(2-Methoxyethoxy)-4,5,5′,6′-Tetrahydro-2H-Spiro[Furan-3,8′-Pyrano [3,4-b]Pyridin]-2′-yl)-1-Methyl-1H-Pyrrolo[2,3-c]Pyridin-5-yl)Acetamide] | – |
| 126 nM | CC(=O)Nc1cc2c(-c3cc(OC(C)C)c4c(n3)C3(CCOC3)OCC4)cn(C)c2cn1 (centres unmarked) [Example 17, N-(3-(4′-Isopropoxy-4,5,5′,6′-Tetrahydro-2H-Spiro[Furan-3,8′-Pyrano[3,4-b]P yridine]-2′-yl)-1-Methyl-1H-Pyrrolo[2,3-c]Pyridin-5-yl)Acetamide] | – |
| 19.6 nM | CC(=O)Nc1cc2c(-c3ccc4c(n3)C3(CCOC3)OCC4(F)F)cn(C)c2cn1 (centres unmarked) [Example 18, N-(3-(5′,5′-Difluoro-4,5,5′,6′-Tetrahydro-2H-Spiro[Furan-3,8′-Pyrano[3,4-b]P yridine]-2′-yl)-1-Methyl-1H-Pyrrolo[2,3-c]Pyridin-5-yl)Acetamide] | – |
